Data reported in patent publication US11780840B2 (Incyte Corporation, priority 2020, dated 2023).

What was measured:
[1] = biological target: T1, catalytic domain (JH1, amino acids 826-1132) of human JAK2 (Homo sapiens, UniProt O60674); assay: JAK2 LanthaScreen JH1 Binding Assay; details: JAK2 JH1 (1.5 nM), 50 nM fluorescent JAK2-JH1 tracer, 2 hours at 25° C.; read-out: JH1 BIND
T1 construct: catalytic domain (JH1, amino acids 826-1132) of human JAK2; FLAG (N); purchased Carna Biosciences 08-445-20N; host or cells: baculovirus expression system
T1 sequence (O60674 826-1132): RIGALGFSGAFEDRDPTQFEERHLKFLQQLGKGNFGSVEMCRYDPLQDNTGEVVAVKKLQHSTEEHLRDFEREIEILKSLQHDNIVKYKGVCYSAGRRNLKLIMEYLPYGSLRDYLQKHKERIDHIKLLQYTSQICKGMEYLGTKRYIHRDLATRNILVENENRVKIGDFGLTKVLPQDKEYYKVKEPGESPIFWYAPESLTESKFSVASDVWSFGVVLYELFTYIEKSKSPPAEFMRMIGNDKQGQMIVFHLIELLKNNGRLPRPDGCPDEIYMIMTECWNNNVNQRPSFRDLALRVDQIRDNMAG
How it was run: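 TR-FRET tracer-displacement format: compound IC50 from four-parameter curves after 2 h at 25° C. Reaction held 1.5 nM biotinylated, FLAG-tagged JH1 (aa 826-1132), 50 nM tracer, 0.5 nM Streptavidin-Tb, pH 7.5 Tris buffer; 2 mM ATP set nonspecific background.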

[2] = biological target: T2, pseudo-kinase domain (JH2, amino-acids 536-812 with 3 surface mutations W659A, W777A, F794H) of human V617F mutant JAK2 (Homo sapiens, UniProt O60674, F794H/V617F/W659A/W777A); assay: JAK2 LanthaScreen JH2-V617F Binding Assay; details: JAK2 JH2-V617F (0.26 nM), 50 nM Fluorescent JAK2-JH2 Tracer, 1 hour at 25° C.; read-out: JH2 BIND V617F
T2 construct: pseudo-kinase domain (JH2, amino-acids 536-812 with 3 surface mutations W659A, W777A, F794H); His (C); Avi (biotinylated) (C); purchased BPS Bioscience 79498; host or cells: baculovirus expression system
T2 sequence (O60674 536-812 V617F/W659A/W777A/F794H): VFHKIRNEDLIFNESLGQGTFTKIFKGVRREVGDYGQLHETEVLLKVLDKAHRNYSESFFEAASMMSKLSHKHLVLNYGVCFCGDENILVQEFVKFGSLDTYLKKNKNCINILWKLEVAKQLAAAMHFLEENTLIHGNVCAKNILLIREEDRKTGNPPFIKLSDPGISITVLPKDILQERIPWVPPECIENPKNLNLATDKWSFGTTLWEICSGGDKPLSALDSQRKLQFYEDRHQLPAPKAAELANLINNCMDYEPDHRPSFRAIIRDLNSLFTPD
How it was run: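 Serially diluted compounds are mixed with 0.26 nM protein, 50 nM fluorescent JAK2-JH2 tracer and 0.25 nM terbium-labelled streptavidin, then incubated 1 h at 25° C. LanthaScreen signal is read, and IC50 is fitted.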

[3] = biological target: T3, pseudo-kinase domain (JH2, amino-acids 536-812 with 3 surface mutations W659A, W777A, F794H) of human Wild Type JAK2 (Homo sapiens, UniProt O60674, F794H/W659A/W777A); assay: JAK2 LanthaScreen JH2-WT Binding Assay; details: JAK2 JH2-WT (0.145 nM), 50 nM Fluorescent JAK2-JH2 Tracer, 1 hour at 25° C.; read-out: JH2 BIND WT
T3 construct: pseudo-kinase domain (JH2, amino-acids 536-812 with 3 surface mutations W659A, W777A, F794H); His (C); Avi (biotinylated) (C); purchased BPS Bioscience 79463; host or cells: baculovirus expression system
T3 sequence (O60674 536-812 W659A/W777A/F794H): as the sequence (O60674 536-812 V617F/W659A/W777A/F794H) above, with F82V counted along it
How it was run: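 IC50 values derive from four-parameter fits of LanthaScreen signal, measuring displacement of 50 nM fluorescent tracer from 0.145 nM biotinylated, baculovirus-expressed JH2 (536-812) detected by 0.25 nM streptavidin-Tb. Incubation lasts 1 hour at 25° C, pH 7.5.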

SMILES	IC50 [1] [nM]	IC50 [2] [nM]	IC50 [3] [nM]
Cn1c(=O)n(C)c2c3c(-c4ccccc4)c(CCO)[nH]c3ncc21 [Example 42, 7-(2-Hydroxyethyl)-1,3-dimethyl-8-phenyl-3,6-dihydroimidazo[4,5-d]pyrrolo[2,3-b]pyridin-2(1H)-one]	> 1000	> 1000	> 1000
CC(C)C(=O)c1[nH]c2ncc3c(c2c1-c1ccccc1)n(C)c(=O)n3C [Example 43, 7-Isobutyryl-1,3-dimethyl-8-phenyl-3,6-dihydroimidazo [4,5-d]pyrrolo[2,3-b]pyridin-2(1H)-one]	> 1000	> 1000	> 1000
CC(C)n1c(=O)n(C)c2cnc3[nH]c(-c4cnn(CS(C)(=O)=O)c4)c(-c4ccccc4)c3c21 [Example 44]	100 to 500	≤ 10	≤ 10
Cn1c(=O)n(C2CC3CCC2C3)c2c3c(-c4ccccc4)c(-c4cnn(CS(C)(=O)=O)c4)[nH]c3ncc21 (stereo not drawn) [Example 45, 1-(Bicyclo[2.2.1]heptan-2-yl)-3-methyl-7-(1-((methylsulfonyl)methyl)-1H-pyrazol-4-yl)-8-phenyl-3,6-dihydroimidazo[4,5-d]pyrrolo[2,3-b]pyridin-2(1H)-one]	10 to 100	10 to 100	≤ 10
Cn1c(=O)n(C2CCOCC2)c2c3c(-c4ccccc4)c(-c4ccc(CN5CCC(S(C)(=O)=O)CC5)cc4)[nH]c3ncc21 [Example 46, 3-Methyl-7-(4-((4-(methylsulfonyl)piperidin-1-yl)methyl)phenyl)-8-phenyl-1-(tetrahydro-2H-pyran-4-yl)-3,6-dihydroimidazo[4,5-d]pyrrolo[2,3-b] pyridin-2(1H)-one]	500 to 1000	≤ 10	≤ 10
Cn1ncc2cc(-c3c(-c4cnn(CC(C)(C)O)c4)[nH]c4ncc5c(c34)n(C3CCCC3)c(=O)n5C)ccc21 [Example 47, 1-Cyclopentyl-7-(1-(2-hydroxy-2-methylpropyl)-1H-pyrazol-4-yl)-3-methyl-8-(1-methyl-1H-indazol-5-yl)-3,6-dihydroimidazo[4,5-d]pyrrolo[2,3-b]pyridin-2(1H)-one]	100 to 500	≤ 10	≤ 10
Cn1cc(-c2[nH]c3ncc4c(c3c2-c2ccc3c(cnn3C)c2)n(C2CCOCC2)c(=O)n4C)cn1 [Example 48, 3-Methyl-8-(1-methyl-1H-indazol-5-yl)-7-(1-methyl-1H-pyrazol-4-yl)-1-(tetrahydro-2H-pyran-4-yl)-3,6-dihydroimidazo[4,5-d]pyrrolo[2,3-b]pyridin-2(1H)-one]	> 1000	≤ 10	≤ 10
Cn1c(=O)n(C2CCOCC2)c2c3c(-c4ccc(C5(C#N)CC5)cc4)c(-c4ccc(CN5CCC(S(C)(=O)=O)CC5)cc4)[nH]c3ncc21 [Example 49, 1-(4-(3-Methyl-7-(4-((4-(methylsulfonyl)piperidin-1-yl)methyl)phenyl)-2-oxo-1-(tetrahydro-2H-pyran-4-yl)-1,2,3,6-tetrahydroimidazo [4,5-d]pyrrolo[2,3-b]pyridin-8-yl)phenyl)cyclo-propane-1-carbonitrile]	100 to 500	≤ 10	≤ 10
CC(C)n1c(=O)n(C)c2cnc3[nH]c(-c4cnn(CC(C)(C)O)c4)c(-c4ccc(C5(C#N)CC5)cc4)c3c21 [Example 50, 1-(4-(7-(1-(2-Hydroxy-2-methylpropyl)-1H-pyrazol-4-yl)-1-isopropyl-3-methyl-2-oxo-1,2,3,6-tetrahydroimidazo [4,5-d]pyrrolo[2,3-b]pyridin-8-yl)phenyl) cyclopropane-1-carbonitrile]	500 to 1000	≤ 10	≤ 10
Cn1c(=O)n(C2CCOCC2)c2c3c(-c4ccc(C5(N6CCOCC6)CC5)cc4)c(-c4cnn(CC(C)(C)O)c4)[nH]c3ncc21 [Example 51, 7-(1-(2-Hydroxy-2-methylpropyl)-1H-pyrazol-4-yl)-3-methyl-8-(4-(1-morpholinocyclo-propyl)phenyl)-1-(tetrahydro-2H-pyran-4-yl)-3,6-dihydroimidazo[4,5-d]pyrrolo[2,3-b]pyridin-2(1H)-one]	> 1000	≤ 10	≤ 10
Cn1ncc2cc(-c3c(-c4ccc(CN5CCC(S(C)(=O)=O)CC5)cc4)[nH]c4ncc5c(c34)n(C3CCCC3)c(=O)n5C)ccc21 [Example 52, 1-Cyclopentyl-3-methyl-8-(1-methyl-1H-indazol-5-yl)-7-(4-((4-(methylsulfonyl)piperidin-1-yl)methyl)phenyl)-3,6-dihydroimidazo[4,5-d]pyrrolo[2,3-b]pyridin-2(1H)-one]	100 to 500	≤ 10	≤ 10
Cn1ncc2cc(-c3c(-c4cnn(Cc5ccncc5)c4)[nH]c4ncc5c(c34)n(C3CCCC3)c(=O)n5C)ccc21 [Example 53, 1-Cyclopentyl-3-methyl-8-(1-methyl-1H-indazol-5-yl)-7-(1-(pyridin-4-ylmethyl)-1H-pyrazol-4-yl)-3,6-dihydroimidazo[4,5-d]pyrrolo[2,3-b]pyridin-2(1H)-one]	100 to 500	≤ 10	≤ 10
COCCn1cc(-c2[nH]c3ncc4c(c3c2-c2ccc3c(cnn3C)c2)n(C2CCCC2)c(=O)n4C)cn1 [Example 54, 1-Cyclopentyl-7-(1-(2-methoxyethyl)-1H-pyrazol-4-yl)-3-methyl-8-(1-methyl-1H-indazol-5-yl)-3,6-dihydroimidazo[4,5-d]pyrrolo[2,3-b] pyridin-2(1H)-one]	100 to 500	≤ 10	≤ 10
CC(C)n1c(=O)n(C)c2cnc3[nH]c(-c4cnn(CC(C)(C)O)c4)c(-c4ccc5c(cnn5C)c4)c3c21 [Example 55, 7-(1-(2-Hydroxy-2-methylpropyl)-1H-pyrazol-4-yl)-1-isopropyl-3-methyl-8-(1-methyl-1H-indazol-5-yl)-3,6-dihydroimidazo[4,5-d]pyrrolo[2,3-b] pyridin-2(1H)-one]	> 1000	≤ 10	≤ 10
Cn1ncc2cc(-c3c(-c4cnn(CC(F)F)c4)[nH]c4ncc5c(c34)n(C3CCCC3)c(=O)n5C)ccc21 [Example 56, 1-Cyclopentyl-7-(1-(2,2-difluoroethyl)-1H-pyrazol-4-yl)-3-methyl-8-(1-methyl-1H-indazol-5-yl)-3,6-dihydroimidazo[4,5-d]pyrrolo[2,3-b]pyridin-2(1H)-one]	100 to 500	≤ 10	≤ 10
Cn1c(=O)n(C2CCCC2)c2c3c(-c4cc5cnccc5s4)c(-c4cnn(CC(F)F)c4)[nH]c3ncc21 [Example 57, 1-Cyclopentyl-7-(1-(2,2-difluoroethyl)-1H-pyrazol-4-yl)-3-methyl-8-(thieno[3,2-c]pyridin-2-yl)-3,6-dihydroimidazo[4,5-d]pyrrolo[2,3-b]pyridin-2(1H)-one]	100 to 500	≤ 10	≤ 10
Cn1c(=O)n([C@H]2CCCOC2)c2c3c(-c4ccccc4)c(-c4ccc(CN5CCC(S(C)(=O)=O)CC5)cc4)[nH]c3ncc21 [Example 58, (S)-3-Methyl-7-(4-((4-(methylsulfonyl)piperidin-1-yl)methyl)phenyl)-8-phenyl-1-(tetrahydro-2H-pyran-3-yl)-3,6-dihydroimidazo[4,5-d]pyrrolo[2,3-b]pyridin-2(1H)-one]	100 to 500	10 to 100	≤ 10
COc1ccc(-c2c(-c3cnn(Cc4ccncc4)c3)[nH]c3ncc4c(c23)n(C2CCCC2)c(=O)n4C)cc1 [Example 59, 1-Cyclopentyl-8-(4-methoxyphenyl)-3-methyl-7-(1-(pyridin-4-ylmethyl)-1H-pyrazol-4-yl)-3,6-dihydroimidazo[4,5-d]pyrrolo[2,3-b]pyridin-2(1H)-one]	100 to 500	≤ 10	≤ 10
Cn1ncc2cc(-c3c(-c4ccncc4)[nH]c4ncc5c(c34)n(C3CCCC3)c(=O)n5C)ccc21 [Example 60, 1-Cyclopentyl-3-methyl-8-(1-methyl-1H-indazol-5-yl)-7-(pyridin-4-yl)-3,6-dihydroimidazo[4,5-d]pyrrolo[2,3-b]pyridin-2(1H)-one]	> 1000	≤ 10	≤ 10
